PubChem BioAssay AID1259332 (Broad Institute, 2017)
Active and inactive are the calls of the source. How the calls were made is not given here.

tested on: B cell line, CD40 signaling inhibition reporter; test: CD40 pathway inhibition in B cells – B cell lineage, dose response (AID 1259332);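 further: cells stimulated with CD40 ligand tCD40L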

Q: How did the AC50 turn out when `C[C@H]1O[C@@H](O[C@H]2[C@@H](O)C[C@H](O[C@H]3[C@@H](O)C[C@H](O[C@H]4CC[C@]5(C)C6C[C@@H](O)[C@]7(C)[C@@H](C8=CC(=O)OC8)CC[C@]7(O)C6CC[C@@H]5C4)O[C@@H]3C)O[C@@H]2C)C[C@H](O)[C@@H]1O` (some centres undefined) was run?
A: 2.59 µM

Q: With `CC(C)[C@H](N)C(=O)N[C@H]1CCC2C3CC=C4C[C@@H](O)CC[C@]4(C)C3CC[C@@]21C` (some centres undefined) as the compound, how does the AC50 read?
A: 2.97 µM

Q: Which AC50 does the source give for `CCCNC(=O)N1[C@H](C#N)[C@H](c2ccc(C#Cc3cccc(F)c3)cc2)[C@H]1CO` here?
A: 5.57 µM

Q: For `CC(=O)NC12CC3CC(C1)CC(C(=O)OCC(=O)c1ccc4c(c1)OCCO4)(C3)C2`, which AC50 is on record?
A: 6.31 µM

Q: With `Cc1ccccc1-c1ccc2c(c1)O[C@@H](CN(C)C(=O)Nc1ccc(C(F)(F)F)cc1)[C@@H](C)CN([C@@H](C)CO)S2(=O)=O` as the compound, how does the AC50 read?
A: 10.5 µM

Q: `CCCNC(=O)N1[C@H](C#N)[C@H](c2ccc(C3=CCCCC3)cc2)[C@@H]1CO` was tested. Which AC50 did it give?
A: > 20 µM (inactive)

Q: How did the AC50 turn out when `N#Cc1c(Br)n(C2OC(CO)C(O)C2O)c2ncnc(N)c12` (centres undefined) was run?
A: 1.74 µM

Q: With `N#C[C@@H]1[C@@H](c2ccc(C#CC3CCCCC3)cc2)[C@H](CO)N1C(=O)Nc1ccc(F)cc1` as the compound, how does the AC50 read?
A: 6.51 µM

Q: For `COC(=O)c1nn(-c2ccc(-c3ccccc3)cc2)cc1O`, which AC50 is on record?
A: 8.42 µM

Q: How did the AC50 turn out when `Cc1c(CCOC(=O)CC23CC4CC(CC(C)(C4)C2)C3)sc[n+]1CC(=O)c1ccccc1` was run?
A: 3.22 µM

Q: `COc1ccc(S(=O)(=O)N(C)C[C@H]2Oc3ccc(NC(=O)Nc4ccc(C(F)(F)F)cc4)cc3C(=O)N([C@@H](C)CO)C[C@H]2C)cc1` was tested. Which AC50 did it give?
A: > 20 µM (inactive)

Q: Which AC50 does the source give for `CC1CC(C)CC(C)C(O)C(C#N)=CC=CCC(C2CCCC2C(=O)O)OC(=O)CC(O)C(C)C1` (centres undefined) here?
A: < 0.0005 µM

Q: For `CC[C@H]1CN2CCc3cc(OC)c(OC)cc3C2C[C@@H]1CC1NCCc2cc(OC)c(OC)cc21` (some centres undefined), which AC50 is on record?
A: 0.0205 µM

Q: `COc1ccc(-c2cc(-c3ccccc3)c(C#N)c(S(C)=O)n2)cc1` (centres undefined) was tested. Which AC50 did it give?
A: 2.55 µM

Q: Which AC50 does the source give for `C[C@H]1O[C@@H](O[C@H]2[C@@H](O)C[C@H](O[C@H]3[C@@H](O)C[C@H](O[C@H]4CC[C@]5(C)C6CC[C@]7(C)[C@@H](C8=CC(=O)OC8)CC[C@]7(O)C6CC[C@@H]5C4)O[C@@H]3C)O[C@@H]2C)C[C@H](O)[C@@H]1O` (some centres undefined) here?
A: 0.929 µM

Q: Which AC50 does the source give for `COc1c(-c2coc3cc4c(cc3c2=O)CC(O)C(C)(C)O4)ccc2c1C=CC(C)(C)O2` (centres undefined) here?
A: > 20 µM (inactive)

Q: Which AC50 does the source give for `C=C1C(=O)OC2C=C(CO)C3OC3C3OC3(C)CC(OC(=O)/C(=C/C)COC(C)=O)C12` (centres undefined) here?
A: 2.02 µM

Q: `O=C(Nc1ccc(C(F)(F)F)cc1)N1C[C@@H]2N[C@H](C1)C2c1ccc(-c2ccccc2)cc1` (some centres undefined) was tested. Which AC50 did it give?
A: 7.26 µM

Q: Which AC50 does the source give for `COc1ccc2c3c([nH]c2c1)[C@H](CO)N(C(=O)Nc1ccc(F)cc1)CC31CCN(C(=O)c2ccccc2F)CC1` here?
A: 6.92 µM

Q: How did the AC50 turn out when `CCC(C)(O)C(=O)OC1C(=O)OC2CC3C(C)=CC(=O)C(O)C3(C)C3C4(O)OCC23C1C(C)C4O` (centres undefined) was run?
A: 0.0299 µM

Q: `CC1CC(C)(O)CC(C(O)CC2CC(=O)NC(=O)C2)C1=O` (centres undefined) was tested. Which AC50 did it give?
A: 0.0973 µM

Q: Which AC50 does the source give for `CC(NCC(O)COCCC12CC3CC(CC(C3)C1)C2)c1ccccc1` (centres undefined) here?
A: 4.88 µM

Q: With `c1cc(-c2cnn3cc(-c4ccc(OCCN5CCCCC5)cc4)cnc23)ccn1` as the compound, how does the AC50 read?
A: 2.7 µM

Q: For `O=C(Cn1ncc(Cl)c(Cl)c1=O)NC1CCCCC1`, which AC50 is on record?
A: 4.96 µM

Q: For `COC(=O)c1ccc2nc(NC(=O)C(C)(C)C)sc2c1`, which AC50 is on record?
A: 1.9 µM

Q: With `Cc1cccc(-c2ccc(C3[C@@H]4CN(C(=O)Nc5ccc(C(F)(F)F)cc5)C[C@H]3N4)cc2)c1` (some centres undefined) as the compound, how does the AC50 read?
A: 7.37 µM

Q: For `O=C(C#Cc1ccccc1)c1ccccc1`, which AC50 is on record?
A: 6.37 µM

Q: How did the AC50 turn out when `CO[C@H](CN(C)Cc1cc(F)ccc1F)[C@H](C)CN(C(=O)Nc1ccc(C(F)(F)F)cc1)[C@H](C)CO` was run?
A: 8.88 µM

Q: Which AC50 does the source give for `Cc1ccccc1C(=O)N1CCC(C(=O)Nc2nc3ccc(F)cc3s2)CC1` here?
A: 8.19 µM

Q: For `C[n+]1c(-c2ccccc2)cc2c(=Cc3ccc([N+](=O)[O-])cc3)c3ccccc3n21`, which AC50 is on record?
A: 3.93 µM

Q: `COCC(C)n1c(C)cc(C(=O)COC(=O)c2cccn2C)c1C` (centres undefined) was tested. Which AC50 did it give?
A: 3.06 µM

Q: For `COc1cc(/C=N/n2cnnc2)ccc1OC(=O)c1ccncc1`, which AC50 is on record?
A: 3.6 µM

Q: With `COC(=O)C1=C(C(=O)OC)C2OC1c1cc3ccccc3cc12` as the compound, how does the AC50 read?
A: 0.738 µM

Q: `O=[N+]([O-])c1ccc(N2CCOCC2)c2c1no[n+]2[O-]` was tested. Which AC50 did it give?
A: 1.76 µM
